# In patent US9540381B2, “Anti-angiogenesis compound, intermediate and use thereof” (Guangzhou KangRui Biological Pharmaceutical Technology Co., …, priority 2013, dated 2017):
# Experiments:
# VEGFR2 (KDR) = biological target: T1, VEGFR2 (KDR) (Homo sapiens, UniProt P35968); assay: Kinase inhibition dosage effect, KDR; format: biochemical
# T1 construct: purchased Invitrogen
# PDGFR-β [1] = biological target: T2, PDGFR-β (Homo sapiens, UniProt P09619); assay: Kinase inhibition dosage effect, PDGFR-β; format: biochemical
# T2 construct: purchased Upstate
# AKT2 = biological target: T3, AKT2 (Homo sapiens, UniProt P31751); assay: Inhibition specificity, AKT2; format: biochemical; conditions: 5000 nM, average of two tests; read-out: Average Inhibition Rate (%) AKT2
# T3 construct: purchased INVITROGEN
# AURORA-B = biological target: T4, AURORA-B (Homo sapiens, UniProt Q96GD4); assay: Inhibition specificity, AURORA-B; format: biochemical; conditions: 5000 nM, average of two tests; read-out: Average Inhibition Rate (%) AURORA-B
# T4 construct: purchased CARNA
# BRAF = biological target: T5, BRAF (Homo sapiens, UniProt P15056); assay: Inhibition specificity, BRAF; format: biochemical; conditions: 5000 nM, average of two tests; read-out: Average Inhibition Rate (%) BRAF
# T5 construct: purchased UPSTATE
# CDK2 = biological target: T6, CDK2 (Homo sapiens, UniProt P24941); assay: Inhibition specificity, CDK2; format: biochemical; conditions: 5000 nM, average of two tests; read-out: Average Inhibition Rate (%) CDK2
# T6 construct: purchased UPSTATE
# CHEK1 = biological target: T7, CHEK1 (Homo sapiens, UniProt O14757); assay: Inhibition specificity, CHEK1; format: biochemical; conditions: 5000 nM, average of two tests; read-out: Average Inhibition Rate (%) CHEK1
# T7 construct: purchased CARNA
# DMPK = biological target: T8, DMPK (Homo sapiens, UniProt Q09013); assay: Inhibition specificity, DMPK; format: biochemical; conditions: 5000 nM, average of two tests; read-out: Average Inhibition Rate (%) DMPK
# T8 construct: purchased INVITROGEN
# EGFR = EGFR (Homo sapiens, UniProt P00533); assay: Inhibition specificity, EGFR; format: biochemical; conditions: 5000 nM, average of two tests; read-out: Average Inhibition Rate (%) EGFR
# FGFR2 = biological target: T9, FGFR2 (Homo sapiens, UniProt P21802); assay: Inhibition specificity, FGFR2; format: biochemical; conditions: 5000 nM, average of two tests; read-out: Average Inhibition Rate (%) FGFR2
# T9 construct: purchased CARNA
# GSK-3-β = biological target: T10, GSK-3-β (Homo sapiens, UniProt P49841); assay: Inhibition specificity, GSK-3-β; format: biochemical; conditions: 5000 nM, average of two tests; read-out: Average Inhibition Rate (%) GSK-3-β
# T10 construct: purchased UPSTATE
# JAK2 = biological target: T11, JAK2 (Homo sapiens, UniProt O60674); assay: Inhibition specificity, JAK2; format: biochemical; conditions: 5000 nM, average of two tests; read-out: Average Inhibition Rate (%) JAK2
# T11 construct: purchased INVITROGEN
# KDR (VEGFR2) = biological target: T12, KDR (VEGFR2) (Homo sapiens, UniProt P35968); assay: Inhibition specificity, KDR; format: biochemical; conditions: 5000 nM, average of two tests; read-out: Average Inhibition Rate (%) KDR
# T12 construct: purchased Invitrogen
# KIT = biological target: T13, KIT (Homo sapiens, UniProt P10721); assay: Inhibition specificity, KIT; format: biochemical; conditions: 5000 nM, average of two tests; read-out: Average Inhibition Rate (%) KIT
# T13 construct: purchased INVITROGEN
# MAPK3 = biological target: T14, MAPK3 (Homo sapiens, UniProt P27361); assay: Inhibition specificity, MAPK3; format: biochemical; conditions: 5000 nM, average of two tests; read-out: Average Inhibition Rate (%) MAPK3
# T14 construct: purchased INVITROGEN
# MEK1 = biological target: T15, MEK1 (Homo sapiens, UniProt Q02750); assay: Inhibition specificity, MEK1; format: biochemical; conditions: 5000 nM, average of two tests; read-out: Average Inhibition Rate (%) MEK1
# T15 construct: purchased UPSTATE
# MET = biological target: T16, MET (Homo sapiens, UniProt P08581); assay: Inhibition specificity, MET; format: biochemical; conditions: 5000 nM, average of two tests; read-out: Average Inhibition Rate (%) MET
# T16 construct: purchased INVITROGEN
# PDGFR-β [2] = biological target: T2, PDGFR-β; assay: Inhibition specificity, PDGFR-β; format: biochemical; conditions: 5000 nM, average of two tests; read-out: Average Inhibition Rate (%) PDGFR-β
# PI3K-α = biological target: T17, PI3K-α (Homo sapiens, UniProt P42336); assay: Inhibition specificity, PI3K-α (ADP-Glo); format: biochemical; conditions: 5000 nM, average of two tests; read-out: Average Inhibition Rate (%) PI3K-α
# T17 construct: purchased INVITROGEN
# PKC-α = biological target: T18, PKC-α (Homo sapiens, UniProt P17252); assay: Inhibition specificity, PKC-α; format: biochemical; conditions: 5000 nM, average of two tests; read-out: Average Inhibition Rate (%) PKC-α
# T18 construct: purchased INVITROGEN
# ROCK1 = biological target: T19, ROCK1 (Homo sapiens, UniProt Q13464); assay: Inhibition specificity, ROCK1; format: biochemical; conditions: 5000 nM, average of two tests; read-out: Average Inhibition Rate (%) ROCK1
# T19 construct: purchased CARNA
# SRC = biological target: T20, SRC (Homo sapiens, UniProt P12931); assay: Inhibition specificity, SRC; format: biochemical; conditions: 5000 nM, average of two tests; read-out: Average Inhibition Rate (%) SRC
# T20 construct: purchased INVITROGEN
# SYK = biological target: T21, SYK (Homo sapiens, UniProt P43405); assay: Inhibition specificity, SYK; format: biochemical; conditions: 5000 nM, average of two tests; read-out: Average Inhibition Rate (%) SYK
# T21 construct: purchased BPS
# corneal angiogenesis = assay: Rabbit corneal chemical burn model; format: in vivo, white rabbits; conditions: 100 uM subconjunctival injection then drops twice a day, 7 days
# Procedure: This test tested in total 5 white rabbits who were 5-6 month old. After narcotizing, in the center of the cornea, the right eye was treated with a 6 mm diameter of round filter paper which was soaked with 0.1M NaOH, induced for 3 min to produce chemical burn modeling.
# T2 sequence (P09619 33-1106, species assumed): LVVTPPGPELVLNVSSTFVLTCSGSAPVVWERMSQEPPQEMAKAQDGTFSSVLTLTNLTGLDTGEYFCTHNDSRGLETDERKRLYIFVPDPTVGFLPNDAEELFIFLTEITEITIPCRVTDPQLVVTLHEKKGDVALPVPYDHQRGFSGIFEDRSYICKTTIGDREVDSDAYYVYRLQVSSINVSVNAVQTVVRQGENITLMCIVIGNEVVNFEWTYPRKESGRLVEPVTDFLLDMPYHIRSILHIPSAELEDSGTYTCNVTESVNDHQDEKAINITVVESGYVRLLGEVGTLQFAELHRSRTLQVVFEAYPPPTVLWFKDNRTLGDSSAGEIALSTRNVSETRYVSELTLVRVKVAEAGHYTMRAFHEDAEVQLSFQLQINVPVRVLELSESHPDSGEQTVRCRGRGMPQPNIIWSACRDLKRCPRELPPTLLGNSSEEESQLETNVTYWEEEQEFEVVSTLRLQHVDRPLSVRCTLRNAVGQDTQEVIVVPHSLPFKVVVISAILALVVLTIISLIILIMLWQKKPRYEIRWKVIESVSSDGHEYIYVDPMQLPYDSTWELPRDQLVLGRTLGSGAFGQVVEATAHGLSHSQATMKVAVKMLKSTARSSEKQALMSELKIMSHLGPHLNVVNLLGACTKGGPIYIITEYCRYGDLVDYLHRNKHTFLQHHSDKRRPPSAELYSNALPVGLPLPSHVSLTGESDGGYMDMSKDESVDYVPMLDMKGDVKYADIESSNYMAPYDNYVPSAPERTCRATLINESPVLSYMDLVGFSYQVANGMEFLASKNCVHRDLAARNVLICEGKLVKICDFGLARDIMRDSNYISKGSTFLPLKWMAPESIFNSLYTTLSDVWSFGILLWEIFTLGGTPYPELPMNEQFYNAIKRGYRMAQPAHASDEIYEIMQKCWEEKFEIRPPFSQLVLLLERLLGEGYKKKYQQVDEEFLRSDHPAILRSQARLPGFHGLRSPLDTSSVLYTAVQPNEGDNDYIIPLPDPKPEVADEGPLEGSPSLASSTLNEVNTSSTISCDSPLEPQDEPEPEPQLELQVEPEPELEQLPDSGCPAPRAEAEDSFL
# T1 sequence (P35968 20-1356, species assumed): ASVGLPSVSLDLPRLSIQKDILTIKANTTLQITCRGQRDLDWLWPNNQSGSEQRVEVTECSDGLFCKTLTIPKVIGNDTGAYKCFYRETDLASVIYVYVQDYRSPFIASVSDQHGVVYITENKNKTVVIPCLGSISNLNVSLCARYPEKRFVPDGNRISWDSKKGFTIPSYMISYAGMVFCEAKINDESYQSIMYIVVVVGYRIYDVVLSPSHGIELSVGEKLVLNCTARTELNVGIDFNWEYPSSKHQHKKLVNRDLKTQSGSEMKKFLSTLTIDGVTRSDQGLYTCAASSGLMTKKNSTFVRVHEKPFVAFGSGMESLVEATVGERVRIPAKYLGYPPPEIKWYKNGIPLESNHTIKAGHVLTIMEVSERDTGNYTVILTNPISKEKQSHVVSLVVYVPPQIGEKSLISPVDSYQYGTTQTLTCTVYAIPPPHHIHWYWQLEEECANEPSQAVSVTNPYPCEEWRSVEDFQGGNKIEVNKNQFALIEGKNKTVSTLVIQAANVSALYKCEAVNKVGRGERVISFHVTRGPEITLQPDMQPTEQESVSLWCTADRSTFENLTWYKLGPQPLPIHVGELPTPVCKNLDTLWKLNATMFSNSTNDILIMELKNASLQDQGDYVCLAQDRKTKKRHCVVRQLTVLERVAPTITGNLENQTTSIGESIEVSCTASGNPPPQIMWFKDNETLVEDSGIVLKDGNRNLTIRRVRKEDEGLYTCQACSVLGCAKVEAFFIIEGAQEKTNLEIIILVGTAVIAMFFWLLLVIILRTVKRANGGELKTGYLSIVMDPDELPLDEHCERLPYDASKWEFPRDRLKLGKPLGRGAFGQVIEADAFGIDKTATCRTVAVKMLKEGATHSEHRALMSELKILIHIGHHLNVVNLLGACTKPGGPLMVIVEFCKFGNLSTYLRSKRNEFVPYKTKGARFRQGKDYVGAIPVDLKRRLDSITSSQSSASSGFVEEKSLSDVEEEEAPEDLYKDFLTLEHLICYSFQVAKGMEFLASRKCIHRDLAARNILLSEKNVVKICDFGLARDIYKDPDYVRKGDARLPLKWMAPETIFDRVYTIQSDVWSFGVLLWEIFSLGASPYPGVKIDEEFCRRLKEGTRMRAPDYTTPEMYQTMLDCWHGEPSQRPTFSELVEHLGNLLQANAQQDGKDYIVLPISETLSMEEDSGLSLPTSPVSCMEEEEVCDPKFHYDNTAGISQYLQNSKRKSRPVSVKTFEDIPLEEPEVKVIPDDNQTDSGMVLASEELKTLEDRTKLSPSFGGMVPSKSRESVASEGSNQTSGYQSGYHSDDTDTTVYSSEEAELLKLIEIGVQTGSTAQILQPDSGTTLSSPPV
# T13 sequence (P10721 26-976, species assumed): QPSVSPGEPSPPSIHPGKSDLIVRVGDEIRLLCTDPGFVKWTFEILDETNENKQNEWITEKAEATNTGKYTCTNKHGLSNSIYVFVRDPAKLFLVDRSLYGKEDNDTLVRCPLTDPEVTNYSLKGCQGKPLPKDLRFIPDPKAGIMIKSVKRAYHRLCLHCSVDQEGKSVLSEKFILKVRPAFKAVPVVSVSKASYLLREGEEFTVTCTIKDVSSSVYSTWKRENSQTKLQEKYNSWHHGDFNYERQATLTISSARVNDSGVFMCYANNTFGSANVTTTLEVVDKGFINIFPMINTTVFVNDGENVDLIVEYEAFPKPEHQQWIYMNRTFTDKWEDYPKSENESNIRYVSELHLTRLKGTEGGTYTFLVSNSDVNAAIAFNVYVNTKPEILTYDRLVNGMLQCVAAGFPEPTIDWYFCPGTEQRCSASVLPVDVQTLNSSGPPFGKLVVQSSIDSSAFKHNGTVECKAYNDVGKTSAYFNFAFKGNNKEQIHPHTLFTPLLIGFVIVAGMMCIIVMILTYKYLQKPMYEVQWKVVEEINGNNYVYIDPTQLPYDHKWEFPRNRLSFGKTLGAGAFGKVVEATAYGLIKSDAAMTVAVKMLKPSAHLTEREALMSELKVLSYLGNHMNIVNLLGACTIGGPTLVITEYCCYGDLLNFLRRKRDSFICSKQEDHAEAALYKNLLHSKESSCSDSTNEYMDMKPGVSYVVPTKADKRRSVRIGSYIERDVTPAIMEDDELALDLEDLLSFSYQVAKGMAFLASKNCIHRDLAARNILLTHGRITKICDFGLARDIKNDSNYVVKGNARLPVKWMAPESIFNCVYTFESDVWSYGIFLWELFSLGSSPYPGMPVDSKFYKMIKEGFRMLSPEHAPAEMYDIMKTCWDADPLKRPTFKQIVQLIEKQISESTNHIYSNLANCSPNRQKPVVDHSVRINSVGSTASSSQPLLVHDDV
# T15 sequence (Q02750 whole entry, species assumed): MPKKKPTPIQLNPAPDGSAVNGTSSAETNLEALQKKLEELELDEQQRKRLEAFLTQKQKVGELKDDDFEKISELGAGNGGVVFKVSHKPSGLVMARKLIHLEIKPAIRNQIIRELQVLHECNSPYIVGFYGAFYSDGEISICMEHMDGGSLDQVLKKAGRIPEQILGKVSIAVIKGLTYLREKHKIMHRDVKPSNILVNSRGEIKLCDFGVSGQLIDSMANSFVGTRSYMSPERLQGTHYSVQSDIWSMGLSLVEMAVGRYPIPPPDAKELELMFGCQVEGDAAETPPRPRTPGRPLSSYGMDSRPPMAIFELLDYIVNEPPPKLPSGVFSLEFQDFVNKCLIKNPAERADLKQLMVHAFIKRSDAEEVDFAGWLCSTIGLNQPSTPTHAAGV
# T11 sequence (O60674 whole entry, species assumed): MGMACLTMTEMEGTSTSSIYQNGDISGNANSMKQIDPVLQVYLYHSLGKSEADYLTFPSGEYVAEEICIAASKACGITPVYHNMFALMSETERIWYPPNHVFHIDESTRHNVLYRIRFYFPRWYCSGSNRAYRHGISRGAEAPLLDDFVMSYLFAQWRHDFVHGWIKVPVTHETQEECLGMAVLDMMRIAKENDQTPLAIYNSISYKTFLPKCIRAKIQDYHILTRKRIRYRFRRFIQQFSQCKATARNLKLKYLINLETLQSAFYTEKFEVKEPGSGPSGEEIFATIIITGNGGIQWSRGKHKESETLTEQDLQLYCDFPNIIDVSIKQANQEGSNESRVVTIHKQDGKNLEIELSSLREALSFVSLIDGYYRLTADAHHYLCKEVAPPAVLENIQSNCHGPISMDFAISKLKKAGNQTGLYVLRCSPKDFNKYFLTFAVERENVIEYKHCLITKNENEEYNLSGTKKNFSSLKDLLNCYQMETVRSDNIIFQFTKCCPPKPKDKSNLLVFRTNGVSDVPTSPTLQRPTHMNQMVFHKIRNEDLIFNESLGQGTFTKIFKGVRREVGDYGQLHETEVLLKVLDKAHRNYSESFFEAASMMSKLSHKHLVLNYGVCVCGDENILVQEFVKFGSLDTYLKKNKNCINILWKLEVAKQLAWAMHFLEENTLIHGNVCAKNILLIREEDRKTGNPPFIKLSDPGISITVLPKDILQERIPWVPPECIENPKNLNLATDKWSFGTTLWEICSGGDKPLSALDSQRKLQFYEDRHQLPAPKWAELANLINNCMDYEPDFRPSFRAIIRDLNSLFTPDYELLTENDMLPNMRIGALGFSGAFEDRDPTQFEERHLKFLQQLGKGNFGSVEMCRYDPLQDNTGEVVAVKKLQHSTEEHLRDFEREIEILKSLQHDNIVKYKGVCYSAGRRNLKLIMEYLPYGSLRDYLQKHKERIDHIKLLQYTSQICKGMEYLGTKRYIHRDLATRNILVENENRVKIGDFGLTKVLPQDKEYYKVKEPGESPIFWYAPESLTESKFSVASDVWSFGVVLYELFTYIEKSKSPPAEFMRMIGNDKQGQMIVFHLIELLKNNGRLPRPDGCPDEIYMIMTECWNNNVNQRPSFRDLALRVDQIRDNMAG
# T12 sequence (P35968 20-1356, species assumed): as the sequence (P35968 20-1356, species assumed) above
structure (smiles),measurement,setting,value
Nc1cc(Oc2ccc3c(C(=O)Nc4cccc(C(F)(F)F)c4)cccc3n2)ncn1 [Compound 2-1],inhibition activity on KDR (in words),VEGFR2 (KDR),good inhibition activity
same,IC50,"VEGFR2 (KDR); [ATP] 80 μM, 3 hr",0.0277 µM
same,Inhibition Rate on KDR (%),VEGFR2 (KDR); concentration 0.0002823 (uM),2.75%
same,Inhibition Rate on KDR (%),VEGFR2 (KDR); concentration 0.0008468 (uM),0.61%
same,Inhibition Rate on KDR (%),VEGFR2 (KDR); concentration 0.0025403 (uM),7.27%
same,Inhibition Rate on KDR (%),VEGFR2 (KDR); concentration 0.0076208 (uM),20.59%
same,Inhibition Rate on KDR (%),VEGFR2 (KDR); concentration 0.0228624 (uM),45.65%
same,Inhibition Rate on KDR (%),VEGFR2 (KDR); concentration 0.0685871 (uM),71.24%
same,Inhibition Rate on KDR (%),VEGFR2 (KDR); concentration 0.2057613 (uM),84.37%
same,Inhibition Rate on KDR (%),VEGFR2 (KDR); concentration 0.6172840 (uM),91.13%
same,Inhibition Rate on KDR (%),VEGFR2 (KDR); concentration 1.8518519 (uM),94.18%
same,Inhibition Rate on KDR (%),VEGFR2 (KDR); concentration 5.5555556 (uM),95.30%
same,Inhibition Rate on KDR (%),VEGFR2 (KDR); concentration 16.6666667 (uM),94.60%
same,Inhibition Rate on KDR (%),VEGFR2 (KDR); concentration 50 (uM),94.91%
same,Hill KDR,VEGFR2 (KDR); dose-effect curve fit,1.066
same,inhibition activity on PDGFR-β (in words),PDGFR-β [1],good inhibition activity
same,IC50,"PDGFR-β [1]; [ATP] 30 μM, 3 hr",1.94 µM
same,Inhibition Rate on PDGFR-β (%),PDGFR-β [1]; concentration 0.0002823 (uM),0.72%
same,Inhibition Rate on PDGFR-β (%),PDGFR-β [1]; concentration 0.0008468 (uM),2.69%
same,Inhibition Rate on PDGFR-β (%),PDGFR-β [1]; concentration 0.0025403 (uM),0.80%
same,Inhibition Rate on PDGFR-β (%),PDGFR-β [1]; concentration 0.0076208 (uM),1.43%
same,Inhibition Rate on PDGFR-β (%),PDGFR-β [1]; concentration 0.0228624 (uM),7.89%
same,Inhibition Rate on PDGFR-β (%),PDGFR-β [1]; concentration 0.0685871 (uM),10.09%
same,Inhibition Rate on PDGFR-β (%),PDGFR-β [1]; concentration 0.2057613 (uM),12.85%
same,Inhibition Rate on PDGFR-β (%),PDGFR-β [1]; concentration 0.6172840 (uM),23.86%
same,Inhibition Rate on PDGFR-β (%),PDGFR-β [1]; concentration 1.8518519 (uM),46.85%
same,Inhibition Rate on PDGFR-β (%),PDGFR-β [1]; concentration 5.5555556 (uM),73.86%
same,Inhibition Rate on PDGFR-β (%),PDGFR-β [1]; concentration 16.6666667 (uM),86.35%
same,Inhibition Rate on PDGFR-β (%),PDGFR-β [1]; concentration 50 (uM),85.78%
same,Hill PDGFR-β,PDGFR-β [1]; dose-effect curve fit,1.09
same,inhibition at 5 µM,AKT2,1.35%
same,inhibition at 5 µM,AURORA-B,~31%
same,inhibition at 5 µM,BRAF,4.11%
same,inhibition at 5 µM,CDK2,3.75%
same,inhibition at 5 µM,CHEK1,2.54%
same,inhibition at 5 µM,DMPK,1.53%
same,inhibition at 5 µM,EGFR,5.35%
same,inhibition at 5 µM,FGFR2,~36%
same,inhibition at 5 µM,GSK-3-β,-0.57%
same,inhibition at 5 µM,JAK2,~21%
same,inhibition at 5 µM,KDR (VEGFR2),> 97%
same,inhibition at 5 µM,KIT,~72%
same,inhibition at 5 µM,MAPK3,1.44%
same,inhibition at 5 µM,MEK1,1.06%
same,inhibition at 5 µM,MET,3.83%
same,inhibition at 5 µM,PDGFR-β [2],~71%
same,inhibition at 5 µM,PI3K-α,6.78%
same,inhibition at 5 µM,PKC-α,-0.01%
same,inhibition at 5 µM,ROCK1,2.63%
same,inhibition at 5 µM,SRC,~21%
same,inhibition at 5 µM,SYK,-2.15%
same,"effect on corneal angiogenesis (in words, FIG. 12)",corneal angiogenesis,obviously reduces corneal angiogenesis
